The record followed here is patent EP0450097B1, “BENZOHETEROCYCLIC COMPOUNDS” (OTSUKA PHARMACEUTICAL CO., LTD., priority 1989, dated 1991).

Each structure is given as a SMILES string.

One assay deals with T1, V₁ receptor (Rattus norvegicus, UniProt P30560).
T1 construct: Using rat liver plasma membrane preparations; from tissue; host or cells: rat liver plasma membranes
Nature of the assay: V₁ receptor binding assay ([³H]-Arg-vasopressin, rat liver plasma membrane preparations). To be noted: 37°C for 10 minutes. The procedure:
Using rat liver plasma membrane preparations prepared according to Ichihara's method [cf: Akira Ichihara, J. Bio. Chem., 258, 9283 (1983)], the plasma membrane (50000dpm, 2x10⁻¹⁰ M) of [³H]-Arg-vasopressin and a test compound (60 µg, 10⁻⁸-10⁻⁴ M) are incubated at 37°C for 10 minutes in 100 mM Tris-HCl buffer (pH: 8.0, 250 µl) containing 5 mM MgCl₂, 1 mM EDTA and 0.1 % BSA. After incubation, the mixture is filtered three times using the glass filter (GF/F) so as to separate the membrane preparation combined with vasopressin and then washed with the buffer (5 ml). This glass filter is taken out and mixed with liquid scintillation cocktail. The amount of [³H]-vasopressin combined with the membrane is measured by liquid scintillation counter and the rate of the inhibitory effect of the test compound is estimated according to the following equation. Rate of the inhibitory effect (%) = 100 -(C1 - B1)/(C0 - B1)X 100 [formula] C¹: The amount of [³H]-vasopressin combined with the membrane in the presence of the test compound (in prescribed amount). C⁰: The amount of [³H]-vasopressin combined with the membrane in the absence of the test compound. B¹: The amount of [³H]-vasopressin combined with the membrane in the presence of the excess amount of vasopressin (10⁻⁶ M).
(§1) The results are expressed as IC₅₀ values, which is the concentration of the test compound required to achieve the inhibitory effect in the rate of 50 %.

In another assay the target is T2, V₂ receptor (Rattus norvegicus, UniProt Q00788).
T2 construct: Using rat kidney plasma membrane preparations; from tissue; host or cells: rat kidney plasma membranes
The experiment in a line: V₂ receptor binding assay ([³H]-Arg-vasopressin, rat kidney plasma membrane preparations). To be noted: 4°C for 3 hours. How it is done: Using rat kidney plasma membrane preparations prepared according to O. Hechter's method [cf: J. Bio. […] After incubation, the mixture is filtered using the glass filter (GF/F) so as to separate the membrane preparation combined with vasopressin and then washed twice with the buffer (5 ml). This glass filter is taken out and mixed with liquid scintillation cocktail. The amount of [³H]-vasopressin combined with the membrane is measured by liquid scintillation counter and the rate of the inhibitory effect of the test compound is estimated according to the following equation. Rate of the inhibitory effect (%) = 100 -(C1 - B1)/(C0 - B1)X 100 [formula] C¹: The amount of [³H]-vasopressin combined with the membrane in the presence of the test compound (in prescribed amount). C⁰: The amount of [³H)-vasopressin combined with the membrane in the absence of the test compound. B¹: The amount of [³H]-vasopressin combined with the membrane in the presence of the excess amount of vasopressin (10⁻⁶ M).
as §1

T2 sequence (Q00788 whole entry): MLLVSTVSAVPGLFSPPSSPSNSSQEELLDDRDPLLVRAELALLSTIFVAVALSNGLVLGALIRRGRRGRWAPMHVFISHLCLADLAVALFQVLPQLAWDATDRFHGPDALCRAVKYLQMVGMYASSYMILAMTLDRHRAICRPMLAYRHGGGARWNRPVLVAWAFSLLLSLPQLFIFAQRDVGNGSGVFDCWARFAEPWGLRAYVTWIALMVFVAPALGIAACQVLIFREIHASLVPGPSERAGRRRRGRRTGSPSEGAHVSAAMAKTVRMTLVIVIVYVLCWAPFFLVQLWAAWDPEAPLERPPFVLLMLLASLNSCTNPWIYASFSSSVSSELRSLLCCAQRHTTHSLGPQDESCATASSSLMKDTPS
T1 sequence (P30560 whole entry): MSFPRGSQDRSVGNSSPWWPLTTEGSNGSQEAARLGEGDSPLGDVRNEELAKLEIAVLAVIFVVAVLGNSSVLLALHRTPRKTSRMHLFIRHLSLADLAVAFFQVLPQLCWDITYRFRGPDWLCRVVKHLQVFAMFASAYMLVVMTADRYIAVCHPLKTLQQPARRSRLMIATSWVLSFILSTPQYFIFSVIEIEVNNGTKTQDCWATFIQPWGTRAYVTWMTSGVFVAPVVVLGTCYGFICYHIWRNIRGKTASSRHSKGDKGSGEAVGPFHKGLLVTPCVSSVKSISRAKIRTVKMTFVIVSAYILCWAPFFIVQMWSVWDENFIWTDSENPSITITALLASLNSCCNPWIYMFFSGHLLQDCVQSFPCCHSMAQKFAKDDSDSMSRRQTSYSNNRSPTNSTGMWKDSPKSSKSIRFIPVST

As usually defined, the IC50 is the concentration needed to halve the response being measured. The low end stands for inhibition by little substance, the high end for a need for much substance. Regarding `Cc1ccccc1C(=O)Nc1ccc(C(=O)N2CCCCCc3ccccc32)cc1` [compound 36], the IC50 turned out to be 410 nM at V₁ receptor and 28 nM on V₂ receptor. On to `CCN(CC(=O)Nc1ccc(C(=O)N2CCCCc3ccccc32)cc1)c1ccccc1` [compound 114], for which the IC50 on V₁ receptor turned out to be 11 nM; on V₂ receptor, 6 nM.

In the case of `COc1cc(NC(=O)c2ccccc2C)ccc1C(=O)N1CCCC(O)c2ccccc21` (stereo not drawn) [compound 238], the results for the half-inhibitory concentration (IC50) at V₁ receptor and at V₂ receptor were 390 nM and 20 nM, respectively. In the same order, the values of `Cc1ccccc1C(=O)Nc1ccc(C(=O)N2CCCC(CN=[N+]=[N-])c3ccccc32)cc1` (stereo not drawn) [compound 250] are 190 nM and 120 nM.

On to `CN(CCO)CCOc1ccccc1C(=O)Nc1ccc(C(=O)N2CCCCc3ccccc32)cc1` [compound 125], for which the IC50 at V₁ receptor came out at 91 nM; at V₂ receptor it was 280 nM. The like results for `Cc1ccccc1C(=O)Nc1ccc(C(=O)N2CCCC(OCC(=O)N3CCSCC3)c3ccccc32)cc1` (stereo not drawn) [compound 279] were, in that order, 150 nM and 8 nM. Regarding `C=CCN(CC(=O)Nc1ccc(C(=O)N2CCCCc3ccccc32)cc1)c1ccccc1` [compound 115], the IC50 on V₁ receptor amounted to 12 nM; at V₂ receptor, 6 nM. Consider `NCCCCOc1ccccc1C(=O)Nc1ccc(C(=O)N2CCCCc3ccccc32)cc1` [compound 70], for which the results for the IC50 on V₁ receptor and at V₂ receptor were 41 nM and 12 nM, respectively. For the molecule `Cc1ccccc1C(=O)Nc1ccc(C(=O)N2CCCC(OCC(=O)N(C)CCO)c3ccccc32)cc1` (stereo not drawn) [compound 293], the IC50 was determined as 190 nM at V₁ receptor and 65 nM at V₂ receptor. The like results for `Cc1ccccc1C(=O)Nc1ccc(C(=O)N2CCCC(OCC(=O)N3CCOCC3)c3ccccc32)cc1` (stereo not drawn) [compound 278] were, in that order, 300 nM and 13 nM. Consider `O=C(CNc1ccccc1Cl)Nc1ccc(C(=O)N2CCCCc3ccccc32)cc1` [compound 116], for which the IC50 is 40 nM on V₁ receptor and 39 nM on V₂ receptor. The like results for `O=C(Nc1ccc(C(=O)N2CCCCc3ccccc32)cc1)c1cc(Cl)cc(Cl)c1` [compound 32] were, in that order, 300 nM and 16 nM. In the same order, the values of `CC(=O)NCC1CCCN(C(=O)c2ccc(NC(=O)c3ccccc3C)cc2)c2ccccc21` (stereo not drawn) [compound 255] are 46 nM and 5 nM.

For the molecule `CN(C)C1CCCN(C(=O)c2ccc(NC(=O)c3ccccc3C(F)(F)F)cc2)c2ccccc21` (stereo not drawn) [compound 188], the IC50 at V₁ receptor was 470 nM; at V₂ receptor, 39 nM. The like results for `Cc1ccccc1C(=O)Nc1ccc(C(=O)N2CCCN(C)c3ccccc32)cc1` [compound 90] were, in that order, 380 nM and 14 nM.

As for `Cc1ccccc1C(=O)Nc1ccc(C(=O)N2CCCC(OC(=O)N(C)C)c3ccccc32)cc1` (stereo not drawn) [compound 187], the results for the IC50 at V₁ receptor and on V₂ receptor were 450 nM and 29 nM, respectively. In the same order, the values of `CCN(CC(=O)Nc1ccc(C(=O)N2CCCC(OCC(=O)N(C)C)c3ccccc32)cc1)c1ccccc1` (stereo not drawn) [compound 313] are 32 nM and 12 nM.

Turning to `C=C1CCCN(C(=O)c2ccc(NC(=O)c3ccccc3C)cc2)c2ccccc21` [compound 209], the IC50 amounted to 74 nM on V₁ receptor and 4 nM at V₂ receptor. In the same order, the values of `Cc1ccccc1C(=O)Nc1ccc(C(=O)N2CCCC(OCC(=O)NCc3ccncc3)c3ccccc32)cc1` (stereo not drawn) [compound 290] are 210 nM and 21 nM. In the same order, the values of `Cc1ccccc1C(=O)Nc1ccc(C(=O)N2CCCC(NC(=O)Nc3ccccc3)c3ccccc32)cc1` (stereo not drawn) [compound 280] are 470 nM and 45 nM. In the same order, the values of `Cc1ccccc1C(=O)Nc1ccc(C(=O)N2CCCC(CNC=O)c3ccccc32)cc1` (stereo not drawn) [compound 269] are 480 nM and 3 nM. As for `CNC1CCCN(C(=O)c2ccc(NC(=O)c3ccccc3C)c(OC)c2)c2ccc(Cl)cc21` (stereo not drawn) [compound 323], the IC50 at V₁ receptor was 64 nM; at V₂ receptor, 14 nM.

On to `O=C(Nc1ccc(C(=O)N2CCCCc3ccccc32)cc1)c1c(F)cccc1Cl` [compound 63], for which the IC50 was 140 nM on V₁ receptor and 46 nM on V₂ receptor.

As for `CN(C)c1ccccc1C(=O)Nc1ccc(C(=O)N2CCCC(N(C)C)c3ccccc32)cc1` (stereo not drawn) [compound 298], the figures for the IC50 on V₁ receptor and on V₂ receptor were 290 nM and 100 nM, respectively. The like results for `CC(C)NCCCCOc1ccccc1C(=O)Nc1ccc(C(=O)N2CCCC(O)c3ccccc32)cc1` (stereo not drawn) [compound 312] were, in that order, 56 nM and 290 nM. The like results for `CCN(CC(=O)Nc1ccc(C(=O)N2CCCC(N(C)C)c3cc(Cl)ccc32)cc1)c1ccccc1` (stereo not drawn) [compound 308] were, in that order, 110 nM and 23 nM. Take `CNC1CCCN(C(=O)c2ccc(NC(=O)c3ccccc3Cl)cc2)c2ccc(Cl)cc21` (stereo not drawn) [compound 302]: the IC50 came to 71 nM on V₁ receptor and 11 nM on V₂ receptor. In the case of `CC(C)NCCCCOc1ccccc1C(=O)Nc1ccc(C(=O)N2CCCCc3ccccc32)cc1` [compound 68], the IC50 on V₁ receptor is 13 nM; at V₂ receptor, 190 nM. In the same order, the values of `Cc1ccccc1C(=O)Nc1ccc(C(=O)N2CCC(=O)Cc3ccccc32)cc1` [compound 193] are 170 nM and 36 nM.

As for `Cc1ccccc1C(=O)Nc1ccc(C(=O)N2CCCC(COS(C)(=O)=O)c3ccccc32)cc1` (stereo not drawn) [compound 235], the IC50 at V₁ receptor was 88 nM; at V₂ receptor it was 6 nM. The like results for `NC(=O)COC1CCCN(C(=O)c2ccc(NC(=O)c3ccccc3Cl)cc2)c2ccccc21` (stereo not drawn) [compound 164] were, in that order, 150 nM and 10 nM. The like results for `Cc1ccccc1C(=O)Nc1ccc(C(=O)N2CCCC(O)c3ccccc32)cc1` (stereo not drawn) [compound 143] were, in that order, 150 nM and 8 nM. The like results for `CCOc1cccc(C(=O)Nc2ccc(C(=O)N3CCCCc4ccccc43)cc2)c1` [compound 59] were, in that order, 310 nM and 240 nM. In the case of `Cc1ccccc1C(=O)Nc1ccc(C(=O)N2CCCC(OCC(=O)N3CC[S+]([O-])CC3)c3ccccc32)cc1` (stereo not drawn) [compound 281], the IC50 on V₁ receptor was determined as 180 nM; at V₂ receptor it was 11 nM. On V₂ receptor, `O=C(Nc1ccc(C(=O)N2CCCC(=O)c3ccccc32)cc1)c1cc(Cl)cc(Cl)c1` [compound 139] returned an IC50 of 100 nM. In other words, the sub-micromolar range.

Take `CN1CCCN(C(=O)c2ccc(NC(=O)c3ccccc3)cc2)c2ccccc21` [compound 87]: the IC50 at V₂ receptor is 46 nM. Same read-out and setting: with `CC(=O)N(C)C1CCCN(C(=O)c2ccc(NC(=O)c3cc(Cl)cc(Cl)c3)cc2)c2ccccc21` (stereo not drawn) [compound 142] the figure was 8 nM; with `Cc1ccccc1C(=O)Nc1ccc(C(=O)N2CCCC(C)(O)c3ccccc32)cc1` (stereo not drawn) [compound 261], 11 nM; with `CN1CCCN(C(=O)c2ccc(NC(=O)c3cc(Cl)cc(Cl)c3)cc2)c2ccccc21` [compound 89], 35 nM.

At V₂ receptor, `CN(C)C1CCCN(C(=O)c2ccc(NC(=O)c3cccc(N)c3)cc2)c2ccccc21` (stereo not drawn) [compound 292] displayed an IC50 of 180 nM. In turn, `COc1cc(C(=O)N2CCC(N(C)C)c3ccccc32)ccc1NC(=O)c1cccc(C)c1C` (stereo not drawn) [compound 144] displayed an IC50 at V₂ receptor of 20 nM. On the same count and under the same terms, with `Cc1cc(C(=O)N2CCCC(N(C)C)c3ccccc32)ccc1NC(=O)c1ccc(Cl)cc1Cl` (stereo not drawn) [compound 227] the figure was 29 nM.

The molecule `NC1Cc2ccccc2N(C(=O)c2ccc(NC(=O)c3cc(Cl)cc(Cl)c3)cc2)C1` (stereo not drawn) [compound 98] showed an IC50 at V₂ receptor of 450 nM. As to `O=C(Nc1cc(Cl)cc(Cl)c1)c1ccc(C(=O)N2CCCc3ccccc32)cc1` [compound 24], on V₂ receptor, the IC50 amounted to 1090 nM. Consider `Cc1ccccc1C(=O)Nc1ccc(C(=O)N2CCCC(O)c3ccccc32)c(Cl)c1` (stereo not drawn) [compound 210], for which the IC50 on V₂ receptor is 4 nM. Against the preceding molecule, the IC50 is about 270-fold lower. Same read-out and setting: for `CN(C)C1CCCN(C(=O)c2ccc(NC(=O)c3ccccc3Cl)cc2Cl)c2ccccc21` (stereo not drawn) [compound 184] the value was 23 nM; for `O=C(NC1CCCCC1)c1ccc(C(=O)N2CCCc3ccccc32)cc1` [compound 25], 1670 nM. Still for that read-out and setting: with `CCNC1CCCN(C(=O)c2ccc(NC(=O)c3ccccc3C)cc2)c2ccccc21` (stereo not drawn) [compound 229] the figure was 29 nM; with `Cc1ccccc1C(=O)Nc1ccc(C(=O)N2CCCC(O)(CO)c3ccccc32)cc1` (stereo not drawn) [compound 237], 41 nM. The same measure, in the same setting: for `CNC1CCCN(C(=O)c2ccc(NC(=O)c3ccccc3C)cc2Cl)c2ccccc21` (stereo not drawn) [compound 182] the value was 5 nM.
